Source: article PMC12557367, ““Precision on Two Wheels”–Structural Refinement of ^64Cu- and ^68Ga-Labeled Bicyclic Peptides Targeting Nectin‑4 for Improved Tumor Imaging: From Preclinical Development to First-in-Human Application” (Journal of Medicinal Chemistry, 2025)
Read-outs that look alike come from different tables or passages of the source. Numbered stars: 1 amine (or outer) side, 2 acyl side, 3 side chain; on linkers, the order of the positions; unused ones are H or OH. Bridge positions count the residues as written; N and C are the ends. Square brackets hold non-standard residues; d marks the D form. Peptide text beside a SMILES is read from it. * marks the point of attachment. DOTA = O=C(O)CN1CCN(CC(=O)O)CCN(CC(=O)*)CCN(CC(=O)O)CC1; TATA = O=C(CC[*:1])N1CN(C(=O)CC[*:2])CN(C(=O)CC[*:3])C1; X1 = O=C(O)CN1CCN(CC(=O)O)CCN([C@H](CCC(=O)*)C(=O)O)CC1; 1Nal = N[C@@H](Cc1cccc2ccccc12)C(=O)O; 2Nal = N[C@@H](Cc1ccc2ccccc2c1)C(=O)O; Hyp = O=C(O)[C@@H]1C[C@@H](O)CN1; hArg = N=C(N)NCCCC[C@H](N)C(=O)O; Met(O) = CS(=O)CC[C@H](N)C(=O)O; SeMet = C[Se]CC[C@H](N)C(=O)O

Columns and labels:
[1] = molecular target: T1, immobilized human nectin-4 (Homo sapiens, UniProt Q96NY8); assay: SPR analysis of binding kinetics; details: ±SEM
T1 construct: close to the value determined for the complete extracellular domain of nectin-4 (0.94 nM); purchased R&D Systems 2659-N4
T1 sequence (Q96NY8 32-349 limits assumed): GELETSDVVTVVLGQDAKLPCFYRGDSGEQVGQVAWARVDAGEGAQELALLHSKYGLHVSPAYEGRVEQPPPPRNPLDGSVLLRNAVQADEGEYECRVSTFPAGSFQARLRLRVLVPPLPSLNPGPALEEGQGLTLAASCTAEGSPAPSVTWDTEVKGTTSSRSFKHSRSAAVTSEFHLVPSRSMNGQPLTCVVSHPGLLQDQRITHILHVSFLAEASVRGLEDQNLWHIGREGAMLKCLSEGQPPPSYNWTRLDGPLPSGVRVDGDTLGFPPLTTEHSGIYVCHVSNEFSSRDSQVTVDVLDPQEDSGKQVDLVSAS
Description: For this purpose, recombinant human nectin-4 was covalently immobilized on a CM5 sensor chip by EDC/NHS coupling. For analyses, the buffer composition (HBS-P+, pH 7.4) was similar to that of the FA assay; however, DMSO was completely omitted (1% DMSO for the FA assay).
The SPR analyses were carried out on a Biacore T200 (GE Healthcare, Chicago, IL, USA) at 25 °C using CM5 sensor chips (Cytiva) and HBS-P+ as running buffer (Cytiva) at a flow of 30 μL/min unless otherwise specified and a data collection rate of 10 Hz. All flow cells (FC) were normalized, and functionalization was performed using an amine coupling Kit (Cytiva). […] Binding analyses were performed by a single-cycle kinetic on both FC. Two start-up cycles were performed at the beginning of each experimental set, comprising the injection of bicyclic peptide (50 nM) and analysis on both FC, followed by regeneration. Binding analysis for the bicyclic peptides was performed by consecutive injection of five increasing concentrations (120 s contact time for each concentration), followed by 600 s dissociation time and analysis on both FC. The regeneration was performed by sequential injection of 10 mM NaOAc (pH 5.5) for 60 s, washing the needle using HBS-P+, injection of 10 mM NaOAc (pH 5.5) for 60 s, 600 s waiting, four injections of HBS-P+ (60 s), and a final 600 s waiting for stabilization. Blank runs using only buffer (HBS-P+) instead of the sample were carried out to obtain double-referenced chromatograms. Binding analyses were performed unless otherwise stated in a concentration range between 0.16–100 nM and 1.6–1000 nM (5-fold dilution series) and analyzed in triplicate. The data were analyzed using the Biacore Evaluation software 3.2.1. […] Data were fitted to a 1:1 binding model.

[2] = molecular target: T2, recombinant human nectin-4 (Homo sapiens, UniProt Q96NY8); assay: FA-based competitive binding assay with probe 1a; details: for Hill coefficient n: competitive binding curve, variable slope
T2 construct: close to the value determined for the complete extracellular domain of nectin-4 (0.94 nM); purchased R&D Systems 2659-N4
T2 sequence (Q96NY8 32-349 limits assumed): T1 sequence (Q96NY8 32-349 limits assumed)
Description: For the competitive binding assay, a constant concentration of probe 1a (1 nM) and of nectin-4 (20 nM) was used, and the concentration of the competitors was varied over at least 3 orders of magnitude. […] Analysis of the curves by nonlinear regression according to dose–response inhibition with variable slope, as implemented in GraphPad Prism (see Experimental section), provided the IC50 value for displacing the probe from nectin-4.
All measurements were conducted at 37 °C over 1200 s (interval of 37 s) using a Cytation 5 multimode microplate reader (BioTek Instruments, Software Gen 5) and black 96-well microplates (BRANDplates with F-bottom wells). Experiments were conducted at an excitation wavelength of 540 nm and an emission wavelength of 620 nm. The FA (r) was calculated by Gen 5 software from the measured parallel and perpendicular fluorescence intensities (I ∥ and I ⊥, respectively) according to eq using a G factor of 0.87 (preset value). r=I∥−G×I⊥/I∥+2G×I⊥ 1
All further data analyses were conducted with GraphPad Prism (version 10.4.1, GraphPad Software, San Diego, CA, USA). The assay mixture (100 μL) contained an aqueous solution (99 μL) and DMSO (1%, v/v, 1 μL).
For the competitive binding assay, fixed concentrations of probe 1a (1 nM) and recombinant human nectin-4 (20 nM) and 10 concentrations of nonlabeled peptide (e.g., […] prepared as serial 1:1 dilution) were used (two separate experiments, each performed in duplicate). The corresponding stock solutions of 1a (2.5 nM) and nectin-4 (50 nM) were prepared in HEPES buffer, while the stock solutions of the nonlabeled peptides were prepared in 5% DMSO/HEPES buffer. nectin-4 (40 μL) and 1a (40 μL) were added to the wells, and the competition was started by the addition of the nonlabeled peptides (20 μL). The FA values were averaged over the time period of 1200 s, and plots of FA = f([peptide]) were analyzed by nonlinear regression according to the model “[inhibitor] vs. response – Variable slope (four parameters)” as implemented in GraphPad Prism. […] Therefore, the lower FA plateau was constrained to the FA value of probe 1a in the absence of nectin-4 and the competitor, which was recorded in each experiment.

[3] = n-Octanol/PBS distribution coefficient (logD 7.4); format: physicochemical
Description: The determination of logD 7.4 was performed in triplicate. A sample of the ^64Cu/^68Ga-labeled compound containing ≈1 MBq in a volume of 1 μL was added to a 1.5 mL Eppendorf tube containing 400 μL of PBS (pH 7.4) and 400 μL of n-Octanol (the phases were presaturated with each other). The tube was vortexed vigorously for 1 min and then centrifuged at 16,100g for 4 min to separate the phases. For sampling from the aqueous phase, the pipette tip was discharged while passing through the octanol layer. Then, the sample was taken within the aqueous phase. Any residual liquid was carefully removed by moving the tip along the inner wall of an Eppendorf tube. The radioactivity in a defined volume of each layer was measured (ISOMED 2100). The distribution coefficient was expressed as the logarithm of the ratio of counts per minute (cpm) measured in the n-Octanol phase to the cpm measured in the PBS phase.

[4] = tested on: HT-1376 cells; assay: Saturation binding assay on intact cells; format: cell-based, human; details: ^68Ga-labeled ligand, intact HT-1376 cells, ±SD
Description: For the saturation binding assay, total and nonspecific binding were determined as described above using 10 different radioligand concentrations ([…]) prepared by serial 1:1 dilution. Plots of “total binding” = f(radioligand) were analyzed by nonlinear regressions using the model of “one site-total, accounting for ligand depletion” as implemented in GraphPad Prism, and Plots of “nonspecific binding” = f(radioligand) were analyzed by linear regressions.

[5] = Oxidation stability in H2O2 (radio-HPLC)
Description: To avoid a too rapid degradation of radiolabeled peptides, a low H2O2 concentration of 0.0012% was chosen. […] In this context, there are three further thioether functionalities in each peptide due to the cyclization of the Cys residues with TATA. In Figure , the curves for the time-dependent degradation of the intact radioligands are depicted, from which the respective half-lives were calculated.
The stability toward oxidizing conditions was assessed with H2O2. For this purpose, the radioligands (2 nmol, 48 μL of labeling mixture) were treated with H2O2 (2 μL of 0.03%, final concentration of 0.0012%) at ambient temperature. At distinct time points (3, 5, and 7 h), an aliquot of 2 μL was withdrawn and diluted with 48 μL of a mixture named “Supersol,” which consists of 20% ethanol, 0.5% Triton X-100, 5 mM EDTA, 0.5 mM o-phenanthroline, and 0.1% saponin. […] The resulting solutions were analyzed by radio-HPLC (same system as that used for analyzing the ^64Cu-labelings).

[6] = Small animal PET/CT imaging; parameters: species or system mice; details: mouse, in vivo
Description: (§1) All animal experiments were performed following the protocols evaluated and approved by the Landesdirektion Sachsen, Referat 25 – Veterinärwesen, Lebensmittelüberwachung and Pharmazie (09105 Chemnitz, Germany, ethics approval number: 25-5131/562/52). HT-1376- and 5637-derived tumor xenograft models were established in NMRI nude mice (Rj: NMRI-Foxn1nu/nu, Charles River Laboratories, Sulzfeld, Germany) by subcutaneous injection of 5 × 10^6 cells in 100 μL of PBS containing 50% (v/v) Matrigel (Corning Life Sciences, Amsterdam, The Netherlands).
(§2) When the tumor volume reached 200 mm^3, PET experiments with radiotracers were performed. Radiolabeling of the ligands was performed as described previously with an apparent molar activity of 25 MBq/nmol. The radioligand stock solution (pH 6.5 – 7.5) was diluted in 0.9% NaCl, and 200 μL containing ∼9 MBq ([…]) was injected per mouse intravenously into a lateral tail vein. For blocking of target-specific radioligand binding, 75 nmol of blocking substance (1d) was administered simultaneously with the radioligand. Coincidences were recorded continuously in a 2 h PET-scan starting with the injection. Additionally, a CT scan was performed for anatomical referencing and attenuation correction. PET/CT imaging, reconstruction, and tissue delineation were carried out as described previously.

[7] = tested on: HT-1376-derived tumor xenograft model; assay: Small animal PET/CT imaging; parameters: species or system mice; details: mouse, in vivo
Description: as §1, §2

Row | SMILES | fold lower binding affinity compared to 1e ([2]; FA K d ratio) [fold] | Hill coefficient n [2] | logD ([3]; pH 7.4, logD 7.4) | half-life [5] [min] | half-life ([6]; Blood half life fast [min]) [min] | half-life ([6]; Blood half life slow [min]) [min] | other results
1 | CSCC[C@@H]1NC(=O)[C@@H]2CSCCC(=O)N3CN(CN(C3)C(=O)CCSC[C@H](NC(=O)CN3CCN(CC(=O)O)CCN(CC(=O)O)CCN(CC(=O)O)CC3)C(=O)N3CCC[C@H]3C(=O)N[C@@H](Cc3ccc4ccccc4c3)C(=O)N[C@H](CC(=O)O)C(=O)N2)C(=O)CCSC[C@@H](C(N)=O)NC(=O)[C@H](Cc2c[nH]c3ccccc23)NC(=O)[C@@H]2C[C@@H](O)CN2C(=O)[C@@H]2CCCN2C(=O)[C@H]([C@@H](C)O)NC(=O)[C@H](CO)NC(=O)[C@H](Cc2c[nH]c3ccccc23)NC(=O)[C@H](CC(=O)O)NC(=O)[C@H](CCCNC(=N)N)NC1=O [8c] ({DOTA}-CP[2Nal][dD]CMRDWSTP[Hyp]WC-NH2; linker 1-5-15 via TATA) | 213 | 1.23 | -2.79 | – | – | – | kon ([1]; HBS-P+ pH 7.4, 25 °C, read-out: k on (SPR, *10^6 M^–1 s^–1)): 20000 M⁻¹ s⁻¹; koff ([1]; pH 7.4, HBS-P+ pH 7.4, 25 °C, read-out: k off (SPR, *10^–3 s^–1)): 0.00239 s⁻¹; factor less potent than DOTA conjugate 1f ([2]; FA K d ratio): 21 fold; Kd ([4]; 60 min, PBS wash, apparent): 103 nM; B max (fmol/mg) [4]: 799 (±136) fmol/mg
2 | C[C@@H](O)[C@@H]1NC(=O)[C@H](CO)NC(=O)[C@H](Cc2c[nH]c3ccccc23)NC(=O)[C@H](CC(=O)O)NC(=O)[C@H](CCCCNC(=N)N)NC(=O)[C@H](CC[S+](C)[O-])NC(=O)[C@@H]2CSCCC(=O)N3CN(CN(C3)C(=O)CCSC[C@H](NC(=O)CC[C@H](C(=O)O)N3CCN(CC(=O)O)CCN(CC(=O)O)CC3)C(=O)N3CCC[C@H]3C(=O)N[C@@H](Cc3cccc4ccccc34)C(=O)N[C@H](CC(=O)O)C(=O)N2)C(=O)CCSC[C@@H](C(N)=O)NC(=O)[C@H](Cc2c[nH]c3ccccc23)NC(=O)[C@@H]2C[C@@H](O)CN2C(=O)[C@@H]2CCCN2C1=O (stereo partly drawn) [compound 2] (X1-CP[1Nal][dD]C[Met(O)][hArg]DWSTP[Hyp]WC-NH2; linker 1-5-15 via TATA) | 34 | 1.07 | -2.51 | – | – | – | –
3 | CSCC[C@@H]1NC(=O)[C@@H]2CSCCC(=O)N3CN(CN(C3)C(=O)CCSC[C@H](NC(=O)CC[C@H](C(=O)O)N3CCN(CC(=O)O)CCN(CC(=O)O)CC3)C(=O)N3CCC[C@H]3C(=O)N[C@@H](Cc3cccc4ccccc34)C(=O)N[C@H](CC(=O)O)C(=O)N2)C(=O)CCSC[C@@H](C(N)=O)NC(=O)[C@H](Cc2c[nH]c3ccccc23)NC(=O)[C@@H]2C[C@@H](O)CN2C(=O)[C@@H]2CCCN2C(=O)[C@H]([C@@H](C)O)NC(=O)[C@H](CO)NC(=O)[C@H](Cc2c[nH]c3ccccc23)NC(=O)[C@H](CC(=O)O)NC(=O)[C@H](CCCCNC(=N)N)NC1=O [[^64Cu]Cu-1e, metal not drawn] | – | – | -2.74 | 218 | 1.21 ± 0.21 | 32.5 ± 3.08 | –
4 | CSCC[C@@H]1NC(=O)[C@@H]2CSCCC(=O)N3CN(CN(C3)C(=O)CCSC[C@H](NC(=O)CC[C@H](C(=O)O)N3CCN(CC(=O)O)CCN(CC(=O)O)CC3)C(=O)N3CCC[C@H]3C(=O)N[C@@H](Cc3ccc4ccccc4c3)C(=O)N[C@H](CC(=O)O)C(=O)N2)C(=O)CCSC[C@@H](C(N)=O)NC(=O)[C@H](Cc2c[nH]c3ccccc23)NC(=O)[C@@H]2C[C@@H](O)CN2C(=O)[C@@H]2CCCN2C(=O)[C@H]([C@@H](C)O)NC(=O)[C@H](CO)NC(=O)[C@H](Cc2c[nH]c3ccccc23)NC(=O)[C@H](CC(=O)O)NC(=O)[C@H](CCCNC(=N)N)NC1=O [[^64Cu]Cu-8a, metal not drawn] (X1-CP[2Nal][dD]CMRDWSTP[Hyp]WC-NH2; linker 1-5-15 via TATA) | – | – | – | 242 | 1.27 ± 0.13 | 35.9 ± 2.08 | Percent fast [%] [7]: 84.87 ±1.35%; body retention at 2 h p.i. [7]: 40–42%; time of highest tumor uptake [7]: ≈ 6 min
5 | C[Se]CC[C@@H]1NC(=O)[C@@H]2CSCCC(=O)N3CN(CN(C3)C(=O)CCSC[C@H](NC(=O)CC[C@H](C(=O)O)N3CCN(CC(=O)O)CCN(CC(=O)O)CC3)C(=O)N3CCC[C@H]3C(=O)N[C@@H](Cc3cccc4ccccc34)C(=O)N[C@H](CC(=O)O)C(=O)N2)C(=O)CCSC[C@@H](C(N)=O)NC(=O)[C@H](Cc2c[nH]c3ccccc23)NC(=O)[C@@H]2C[C@@H](O)CN2C(=O)[C@@H]2CCCN2C(=O)[C@H]([C@@H](C)O)NC(=O)[C@H](CO)NC(=O)[C@H](Cc2c[nH]c3ccccc23)NC(=O)[C@H](CC(=O)O)NC(=O)[C@H](CCCCNC(=N)N)NC1=O [[^64Cu]Cu-5, metal not drawn] (X1-CP[1Nal][dD]C[SeMet][hArg]DWSTP[Hyp]WC-NH2; linker 1-5-15 via TATA) | – | – | – | – | – | – | half-life ([5]; half-life of intact radiolabeled peptide (T1/2), 0.0012% H2O2, 25 °C, one-phase decay): 22.8 min; half-life ([5]; half-life of intact radiolabeled peptide, 0.0012% H2O2): 23 min; logD ([3]; ^64Cu-labeled ligand, n-octanol/PBS pH 7.4, ±SD, read-out: logD 7.4): -2.37
